{"source": "patent US6693216B2", "about": "“Calcium double salts” (Nutrinova Nutrition Specialties & Food Ingredients GmbH, priority 2000, dated 2004)", "details_in_all_cases": "Part II, 1 g/l in apple juice pH 4.5, 25° C.", "key": {"Lactic acid bacteria": {"test_system": "Lactic acid bacteria"}, "Clostridia": {"test_system": "Clostridia"}, "Bacilli": {"test_system": "Bacilli"}, "Thermophilic bacilli": {"test_system": "Thermophilic bacilli"}, "Acetic acid bacteria": {"test_system": "Acetic acid bacteria"}, "Yeasts": {"test_system": "Yeasts"}, "Molds I": {"test_system": "Molds I"}, "Molds II": {"test_system": "Molds II"}, "Gram-negative bacteria": {"test_system": "Gram-negative bacteria"}, "Gram-positive bacteria": {"test_system": "Gram-positive bacteria"}, "[1]": {"details": "1 day after inoculation (2.7 × 10^4)"}, "[2]": {"details": "3 days after inoculation (2.7 × 10^4)"}, "[3]": {"details": "7 days after inoculation (2.7 × 10^4)"}, "[4]": {"details": "14 days after inoculation (2.7 × 10^4)"}}, "note": "Where two headings read alike, the source gives them in different places.", "data": [{"substance": "Calcium Sorbate", "values": [{"measurement": "Number of surviving microorganisms per g of contaminated sample, Lactic acid bacteria", "setting": "Lactic acid bacteria; [1]", "value": "3.4 × 10^3 CFU/g"}, {"measurement": "Number of surviving microorganisms per g of contaminated sample, Lactic acid bacteria", "setting": "Lactic acid bacteria; [2]", "value": "2.0 × 10^3 CFU/g"}, {"measurement": "Number of surviving microorganisms per g of contaminated sample, Lactic acid bacteria", "setting": "Lactic acid bacteria; [3]", "value": "<100", "unit": "CFU/g"}, {"measurement": "Number of surviving microorganisms per g of contaminated sample, Lactic acid bacteria", "setting": "Lactic acid bacteria; [4]", "value": "<10", "unit": "CFU/g"}, {"measurement": "Number of surviving microorganisms per g of contaminated sample, Clostridia", "setting": "Clostridia; 1 day after inoculation (2.9 × 10^4)", "value": "2.2 × 10^3 CFU/g"}, {"measurement": "Number of surviving microorganisms per g of contaminated sample, Clostridia", "setting": "Clostridia; 3 days after inoculation (2.9 × 10^4)", "value": "<100", "unit": "CFU/g"}, {"measurement": "Number of surviving microorganisms per g of contaminated sample, Clostridia", "setting": "Clostridia; 7 days after inoculation (2.9 × 10^4)", "value": "<10", "unit": "CFU/g"}, {"measurement": "Number of surviving microorganisms per g of contaminated sample, Clostridia", "setting": "Clostridia; 14 days after inoculation (2.9 × 10^4)", "value": "<10", "unit": "CFU/g"}, {"measurement": "Number of surviving microorganisms per g of contaminated sample, Bacilli", "setting": "Bacilli; 1 day after inoculation (3.3 × 10^4)", "value": "2.8 × 10^3 CFU/g"}, {"measurement": "Number of surviving microorganisms per g of contaminated sample, Bacilli", "setting": "Bacilli; 3 days after inoculation (3.3 × 10^4)", "value": "1.8 × 10^3 CFU/g"}, {"measurement": "Number of surviving microorganisms per g of contaminated sample, Bacilli", "setting": "Bacilli; 7 days after inoculation (3.3 × 10^4)", "value": "1.3 × 10^3 CFU/g"}, {"measurement": "Number of surviving microorganisms per g of contaminated sample, Bacilli", "setting": "Bacilli; 14 days after inoculation (3.3 × 10^4)", "value": "1.2 × 10^3 CFU/g"}, {"measurement": "Number of surviving microorganisms per g of contaminated sample, Thermophilic bacilli", "setting": "Thermophilic bacilli; 1 day after inoculation (1.3 × 10^4)", "value": "1.4 × 10^3 CFU/g"}, {"measurement": "Number of surviving microorganisms per g of contaminated sample, Thermophilic bacilli", "setting": "Thermophilic bacilli; 3 days after inoculation (1.3 × 10^4)", "value": "5.0 × 10^2 CFU/g"}, {"measurement": "Number of surviving microorganisms per g of contaminated sample, Thermophilic bacilli", "setting": "Thermophilic bacilli; 7 days after inoculation (1.3 × 10^4)", "value": "<10", "unit": "CFU/g"}, {"measurement": "Number of surviving microorganisms per g of contaminated sample, Thermophilic bacilli", "setting": "Thermophilic bacilli; 14 days after inoculation (1.3 × 10^4)", "value": "<10", "unit": "CFU/g"}, {"measurement": "Number of surviving microorganisms per g of contaminated sample, Acetic acid bacteria", "setting": "Acetic acid bacteria; 1 day after inoculation (2.8 × 10^4)", "value": "1.5 × 10^4 CFU/g"}, {"measurement": "Number of surviving microorganisms per g of contaminated sample, Acetic acid bacteria", "setting": "Acetic acid bacteria; 3 days after inoculation (2.8 × 10^4)", "value": "1.4 × 10^4 CFU/g"}, {"measurement": "Number of surviving microorganisms per g of contaminated sample, Acetic acid bacteria", "setting": "Acetic acid bacteria; 7 days after inoculation (2.8 × 10^4)", "value": "2.0 × 10^4 CFU/g"}, {"measurement": "Number of surviving microorganisms per g of contaminated sample, Acetic acid bacteria", "setting": "Acetic acid bacteria; 14 days after inoculation (2.8 × 10^4)", "value": "1.3 × 10^5 CFU/g"}, {"measurement": "Number of surviving microorganisms per g of contaminated sample, Yeasts", "setting": "Yeasts; 1 day after inoculation (2.6 × 10^4)", "value": "2.3 × 10^4 CFU/g"}, {"measurement": "Number of surviving microorganisms per g of contaminated sample, Yeasts", "setting": "Yeasts; 3 days after inoculation (2.6 × 10^4)", "value": "1.0 × 10^4 CFU/g"}, {"measurement": "Number of surviving microorganisms per g of contaminated sample, Yeasts", "setting": "Yeasts; 7 days after inoculation (2.6 × 10^4)", "value": "<100", "unit": "CFU/g"}, {"measurement": "Number of surviving microorganisms per g of contaminated sample, Yeasts", "setting": "Yeasts; 14 days after inoculation (2.6 × 10^4)", "value": "<10", "unit": "CFU/g"}, {"measurement": "Number of surviving microorganisms per g of contaminated sample, Molds I", "setting": "Molds I; 1 day after inoculation (2.2 × 10^4)", "value": "3.9 × 10^3 CFU/g"}, {"measurement": "Number of surviving microorganisms per g of contaminated sample, Molds I", "setting": "Molds I; 3 days after inoculation (2.2 × 10^4)", "value": "<100", "unit": "CFU/g"}, {"measurement": "Number of surviving microorganisms per g of contaminated sample, Molds I", "setting": "Molds I; 7 days after inoculation (2.2 × 10^4)", "value": "<10", "unit": "CFU/g"}, {"measurement": "Number of surviving microorganisms per g of contaminated sample, Molds I", "setting": "Molds I; 14 days after inoculation (2.2 × 10^4)", "value": "<10", "unit": "CFU/g"}, {"measurement": "Number of surviving microorganisms per g of contaminated sample, Molds II", "setting": "Molds II; 1 day after inoculation (2.5 × 10^4)", "value": "6.5 × 10^3 CFU/g"}, {"measurement": "Number of surviving microorganisms per g of contaminated sample, Molds II", "setting": "Molds II; 3 days after inoculation (2.5 × 10^4)", "value": "<100", "unit": "CFU/g"}, {"measurement": "Number of surviving microorganisms per g of contaminated sample, Molds II", "setting": "Molds II; 7 days after inoculation (2.5 × 10^4)", "value": "<10", "unit": "CFU/g"}, {"measurement": "Number of surviving microorganisms per g of contaminated sample, Molds II", "setting": "Molds II; 14 days after inoculation (2.5 × 10^4)", "value": "<10", "unit": "CFU/g"}, {"measurement": "Number of surviving microorganisms per g of contaminated sample, Gram-negative bacteria", "setting": "Gram-negative bacteria; [1]", "value": "1.7 × 10^4 CFU/g"}, {"measurement": "Number of surviving microorganisms per g of contaminated sample, Gram-negative bacteria", "setting": "Gram-negative bacteria; [2]", "value": "1.0 × 10^4 CFU/g"}, {"measurement": "Number of surviving microorganisms per g of contaminated sample, Gram-negative bacteria", "setting": "Gram-negative bacteria; [3]", "value": "1.9 × 10^3 CFU/g"}, {"measurement": "Number of surviving microorganisms per g of contaminated sample, Gram-negative bacteria", "setting": "Gram-negative bacteria; [4]", "value": "2.7 × 10^3 CFU/g"}, {"measurement": "Number of surviving microorganisms per g of contaminated sample, Gram-positive bacteria", "setting": "Gram-positive bacteria; 1 day after inoculation (2.1 × 10^4)", "value": "2.1 × 10^4 CFU/g"}, {"measurement": "Number of surviving microorganisms per g of contaminated sample, Gram-positive bacteria", "setting": "Gram-positive bacteria; 3 days after inoculation (2.1 × 10^4)", "value": "6.4 × 10^3 CFU/g"}, {"measurement": "Number of surviving microorganisms per g of contaminated sample, Gram-positive bacteria", "setting": "Gram-positive bacteria; 7 days after inoculation (2.1 × 10^4)", "value": "<10", "unit": "CFU/g"}, {"measurement": "Number of surviving microorganisms per g of contaminated sample, Gram-positive bacteria", "setting": "Gram-positive bacteria; 14 days after inoculation (2.1 × 10^4)", "value": "<10", "unit": "CFU/g"}]}]}
